Data from patent publication US10683278B2 (JINAN UNIVERSITY, priority 2015, dated 2020).

Assays:
Type in all cases: cell-based
[1] = system: AXL phosphorylation in MDA-MB-231 cells; experiment: Western Blot, AXL kinase phosphorylation of MDA-MB-231 cells; conditions: FIG. 1
Description: Effect of quinolone derivatives on AXL kinase phosphorylation of MDA-MB-231 and 4T1 cells A conventional Western Blot was used, which includes four steps: sample preparation; electrophoretic separation; membrane transfer of proteins; and immunological hybridization and developing (protein detection).
1. MDA-MB-231 cells were seeded into a 6-well plate at an appropriate density, cultured for 24 hours until the cell confluency reached about 80%, drug-containing medium at corresponding concentration was added respectively, and co-cultured for 2-24 hours.
2. The medium was discarded at a predetermined time point, the well plate was washed twice with precooled PBS at 4° C. and the residual liquid was washed away.
3. 1×SDS sample buffer (CST recommended, 6-well plate, 300 μL) was added, scraping all the cells in the dish with a cell scraper, and transferring same to a 1.5 mL of EP tube (operated on ice).
4. The cell lysate was sonicated for 10-15 seconds to cut off DNA, so as to reduce sample viscosity.
5. Boil the sample for 5 min.
6. 12000 g of samples were centrifuged at 4° C. for 5 min, and the supernatant was taken and stored at −20° C. or −80° C. for western blot analysis.
1. Electrophoretic separation: 15-20 μL of 8%-12% SDS-PAGE polyacrylamide gel was loaded, with 90 v electrophoresis for the upper gel, and 120 v electrophoresis for the lower gel.
2. Assembly and transferring of the sandwich: submerging the polyacrylamide gel in transfer buffer and equilibrated for 10 min. According to the size of polyacrylamide gel, PVDF membrane (Mili pore) and 6 pieces of filter paper were cut out and placed in transfer buffer and equilibrated for 10 min. The PVDF membrane needs to be immersed in methanol for 3-5 seconds. Placed in such sequence as sponge→3 layers of filter paper→gel→membrane→3 layers of filter paper→sponge. Ensure there are no bubbles.
3. Membrane transferring: the transfer tank was placed in an ice bath, and the sandwich was added. Ensure the gel facing the negative electrode, and the PVDF facing the positive electrode. 1× membrane transferring buffer was added and placed under the constant pressure, subjecting same to membrane transferring at 110 V for 0.5 to 2 h depending on the molecular weight of the protein to be tested.
4. Blocking: the PVDF membrane was removed after the membrane transferring, blocked with blocking solution (1×TBS, containing 0.5% Tween-20 and 5% skim milk powder), and shaked slowly for 2 h on a horizontal shaker.
5. Incubation of the primary antibody: after blocking, diluting the primary antibody (antibody AXL, phosphor-AXL, AKT, phosphor-AKT, GAPDH, etc.) at 1: 200-1:1000. The PVDF membrane and the antibody were incubated overnight in a wet box at 4° C. to allow sufficient binding of the antibody to the protein of interest.
6. […]

[2] = system: MDA-MB-231 cells; experiment: Immunofluorescence, EMT marker proteins in TGF-β1-induced MDA-MB-231 cells; conditions: TGF-β1 (10 ng/ml); for expression of E-cadherin / expression of N-cadherin: 96 hours; for phosphorylation level of AXL: FIGS. 3 and 4
Description: Immunofluorescence experiments were used to determine the effect of the compounds on EMT marker proteins.
MDA-MB-231 cells were seeded onto a glass slide pre-placed in a 6-well plate, and then treated with compounds to be tested at different concentrations (0.04, 0.2, 1.5 μM) with or without TGF-β1 (10 ng/ml) for 96 hours. At room temperature, the cells were fixed with a 4% formaldehyde solution for 15 minutes, treated with 0.5% Triton X-100 for 10 minutes, and blocked with PBS solution containing 3% goat serum albumin for one hour, and then incubated with antibodies against E-cadherin and N-cadherin (1:1000; Abeam, ab10983) for 1.5 hours at room temperature. The cells were then washed with PBST and co-incubated with Alexa Fluor 555 labeled rabbit secondary antibody (4413; CST, USA) or Alexa Fluor 488 labeled murine secondary antibody (4408; CST, USA) for one hour at room temperature in the dark. Cell nuclei were stained with ProLong Gold antifade reagent (P36931; Invitrogen, USA) for 5 minutes, glass slides were covered with pieces of glass, and samples were observed using a laser scanning confocal microscope (Zeiss 710; Germany).

[3] = system: MDA-MB-231 cells; experiment: Wound-healing and transwell invasion and migration of MDA-MB-231 cells; conditions: FIGS. 5 and 6
Description: Compounds were tested for their effects on EMT using routine transwell and wound-healing experiments.
MDA-MB-231 breast cancer cells were inoculated into a 6-well plate in 5×10^5 cells/well, and when the cells occupied 100% of the medium, the medium was removed, and a scratch of a constant width was drawn in the middle of the monolayer cell with a 200-μL pipette tip. The cells were washed three times with phosphate buffered saline (PBS) to remove cell debris, followed by addition of 2% FBS with or without TGF-β1 (10 ng/mL) and substances to be tested at different concentrations, and cultured in RPMI-1640 for 24 hours. At the time points of 0 and 24 hour, three scratch areas were selected, and examined and photographed using a phase contrast inverted fluorescence microscopy (CKX41; Olympus) and Image-ProPlus image capture software. The degree of scratch closure was calculated using Adobe Photoshop 7.0.1 software (Adobe Systems Inc., San Jose, Calif.). The final result is determined by averaging three results. […]
1. Cells were trypsinized and centrifuged, then resuspended and counted, and resuspended with serum-free medium, diluted to 5×10^4 to 5×10^5 cells/mL; AXL inhibitor solution at different concentrations were prepared with the cell suspension, and added into the upper chamber, and 800 μL of a medium containing 10% FBS was added into the lower chamber. […]

| Compound | phosphorylation of AXL [1] | phosphorylation of downstream signaling protein AKT [1] | expression of E-cadherin [2] | expression of N-cadherin [2] | phosphorylation level of AXL [2] | invasion and migration of MDA-MB-231 cells induced by TGF-β1 [3] |
| --- | --- | --- | --- | --- | --- | --- |
| CCc1ccc2c(c1)c(=O)c(C(=O)Nc1ccc(Oc3ncnc4[nH]cc(-c5ccccc5)c34)c(F)c1)c(C)n2C [TL4800075, 6-ethyl-N-(3-fluoro-4-((5-phenyl-7H-pyrrolo[2,3-d]pyrimidin-4-yl)oxy)phenyl)-1,2-dimethyl-4-oxo-1,4-dihydroquinoline-3-carboxamide] | significantly inhibit | significantly inhibit | significantly upregulate | down-regulate | inhibit the phosphorylation level of AXL in a dose-dependent manner | inhibit the invasion and migration of breast cancer MDA-MB-231 cells induced by TGF-β1 in a dose-dependent manner |
| CCc1ccc2c(c1)c(=O)c(C(=O)Nc1ccc(Oc3ncnc4cc(OC)c(OC)cc34)c(F)c1)c(C)n2C [TL4800191, N-(4-(6,7-dimethoxyquinazolin-4-yloxy)-3-fluorophenyl)-6-ethyl-1,2-dimethyl-4-oxo-1,4-dihydroquinoline-3-carboxamide] | significantly inhibit | significantly inhibit | significantly upregulate | down-regulate | inhibit the phosphorylation level of AXL in a dose-dependent manner | inhibit the invasion and migration of breast cancer MDA-MB-231 cells induced by TGF-β1 in a dose-dependent manner |
